Counter-ions that a name gives are not always drawn.
What was measured:
[1] = target: T1, human NMDA receptor GluN1-GluN2B (Homo sapiens, UniProt Q05586+Q13224); assay: cell-based; assay type: cell-based
T1 construct: expressed in transfected cells; host or cells: CHO
Description: (§1) FLIPR determination of intracellular calcium level was used as a read-out for NMDAR activation.
(§2) 400× compound plate was stored at −20° C. until FLIPR experimental day.
(§3) 4× compound plate was generated from 400× compound plate by addition of up to 30 μl/well of compound buffer on FLIPR experimental day.
(§4) A FLIPR system was used to monitor intracellular calcium level in NMDAR cell lines, pre-loaded for 1 hour with Fluo-4, and then washed with assay buffer.
(§5) Y=Bottom+(Top−Bottom)/(1+10^((LogEC50−Log[A])*HillSlope))

[2] = target: T2, human NMDA receptor GluN1-GluN2D (Homo sapiens, UniProt O15399+Q05586); assay: FLIPR calcium assay, test item effect on L-glutamate CRC, GluN1-GluN2D-CHO; assay type: cell-based
T2 construct: expressed in transfected cells; host or cells: CHO
Description: as §1, §2, §3, §4, §5

rat brain = conditions: 75 mg/kg; Hashimoto et al., 1996; cited from earlier work
[3] = tested on: diheteromeric human recombinant NMDAR containing GluN1 plus GluN2A, GluN2B, GluN2C or GluN2D; assay: FLIPR calcium assay, statements for all four NMDAR subtypes together; assay type: cell-based; conditions: 6 test item concentrations
Description: An operational equation for allosteric modulators (Leach K, Sexton P M and Christopoulos A, Allosteric GPCR modulators: taking advantage of permissive receptor pharmacology, Trends Pharmacol. Sci. 28: 382-389, 2007; Kenakin T P, Overview of receptor interaction of agonists and antagonists, Curr. Protoc. Pharmacol. Chapter 4: Unit 4.1, 2008, Kenakin T P, Biased signalling and allosteric machines: new vistas and challenges for drug discovery, Br. J. Pharmacol. 165: 1659-1669, 2012) was created in Prism 8 (GraphPad) software to estimate KB and a parameters for every test item, with the assumption that, as a pore blocker, every test item would be able to produce a compete blockade of agonist response, at sufficiently high concentration: […]

[4] = target: T3, human NMDA receptor GluN1-GluN2C (Homo sapiens, UniProt Q05586+Q14957); assay: FLIPR calcium assay, test item effect on L-glutamate CRC, GluN1-GluN2C-CHO; assay type: cell-based
T3 construct: expressed in transfected cells; host or cells: CHO
Description: as §1, §2, §3, §4, §5

[5] = target: T4, human NMDA receptor GluN1-GluN2A (Homo sapiens, UniProt Q05586+Q12879); assay: FLIPR calcium assay, test item effect on L-glutamate CRC, GluN1-GluN2A-CHO; assay type: cell-based
T4 construct: expressed in transfected cells; host or cells: CHO
Description: as §1, §2, §3, §4, §5

[6] = highest affinity for a NMDAR subtype = 100%
[7] = operational analysis for allosteric modulators
[8] = operational analysis for allosteric modulators, read-out: KB (M), estimated test item equilibrium dissociation constant

T2 sequence (O15399 28-1336, other chains not shown): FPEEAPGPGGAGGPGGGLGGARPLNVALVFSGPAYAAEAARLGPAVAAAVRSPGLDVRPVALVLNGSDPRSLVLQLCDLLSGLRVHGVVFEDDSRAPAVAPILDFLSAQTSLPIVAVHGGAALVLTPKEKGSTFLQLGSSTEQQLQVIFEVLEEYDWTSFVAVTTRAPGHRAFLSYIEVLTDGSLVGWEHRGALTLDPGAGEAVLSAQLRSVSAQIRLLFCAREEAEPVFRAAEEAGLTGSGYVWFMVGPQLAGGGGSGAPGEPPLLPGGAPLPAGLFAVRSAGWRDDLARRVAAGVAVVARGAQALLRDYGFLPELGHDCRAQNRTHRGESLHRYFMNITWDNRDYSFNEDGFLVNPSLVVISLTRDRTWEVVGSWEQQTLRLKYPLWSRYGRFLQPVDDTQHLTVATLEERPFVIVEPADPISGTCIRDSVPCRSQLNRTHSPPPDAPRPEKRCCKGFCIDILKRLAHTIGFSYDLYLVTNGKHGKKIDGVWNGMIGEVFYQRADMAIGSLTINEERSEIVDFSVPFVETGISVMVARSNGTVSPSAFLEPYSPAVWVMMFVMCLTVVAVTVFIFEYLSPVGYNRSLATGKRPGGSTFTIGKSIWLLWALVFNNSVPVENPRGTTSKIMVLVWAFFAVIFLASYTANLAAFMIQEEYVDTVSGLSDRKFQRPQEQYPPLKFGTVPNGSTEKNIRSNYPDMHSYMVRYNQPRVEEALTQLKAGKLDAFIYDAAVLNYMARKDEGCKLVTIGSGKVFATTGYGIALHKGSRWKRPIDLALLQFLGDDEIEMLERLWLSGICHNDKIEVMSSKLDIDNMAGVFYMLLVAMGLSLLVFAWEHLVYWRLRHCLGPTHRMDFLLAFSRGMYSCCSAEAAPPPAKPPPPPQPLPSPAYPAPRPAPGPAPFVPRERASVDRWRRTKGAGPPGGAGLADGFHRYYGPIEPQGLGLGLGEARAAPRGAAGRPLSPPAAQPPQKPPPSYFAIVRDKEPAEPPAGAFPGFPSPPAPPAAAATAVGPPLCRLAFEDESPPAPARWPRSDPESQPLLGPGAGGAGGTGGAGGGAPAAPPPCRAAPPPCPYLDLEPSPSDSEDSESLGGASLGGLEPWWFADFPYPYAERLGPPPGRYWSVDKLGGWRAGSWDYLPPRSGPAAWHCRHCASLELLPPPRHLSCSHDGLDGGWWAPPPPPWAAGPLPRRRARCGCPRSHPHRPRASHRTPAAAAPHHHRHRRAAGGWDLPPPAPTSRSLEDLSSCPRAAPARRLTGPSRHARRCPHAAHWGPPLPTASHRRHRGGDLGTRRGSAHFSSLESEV
T4 sequence (Q12879 23-1464, other chains not shown): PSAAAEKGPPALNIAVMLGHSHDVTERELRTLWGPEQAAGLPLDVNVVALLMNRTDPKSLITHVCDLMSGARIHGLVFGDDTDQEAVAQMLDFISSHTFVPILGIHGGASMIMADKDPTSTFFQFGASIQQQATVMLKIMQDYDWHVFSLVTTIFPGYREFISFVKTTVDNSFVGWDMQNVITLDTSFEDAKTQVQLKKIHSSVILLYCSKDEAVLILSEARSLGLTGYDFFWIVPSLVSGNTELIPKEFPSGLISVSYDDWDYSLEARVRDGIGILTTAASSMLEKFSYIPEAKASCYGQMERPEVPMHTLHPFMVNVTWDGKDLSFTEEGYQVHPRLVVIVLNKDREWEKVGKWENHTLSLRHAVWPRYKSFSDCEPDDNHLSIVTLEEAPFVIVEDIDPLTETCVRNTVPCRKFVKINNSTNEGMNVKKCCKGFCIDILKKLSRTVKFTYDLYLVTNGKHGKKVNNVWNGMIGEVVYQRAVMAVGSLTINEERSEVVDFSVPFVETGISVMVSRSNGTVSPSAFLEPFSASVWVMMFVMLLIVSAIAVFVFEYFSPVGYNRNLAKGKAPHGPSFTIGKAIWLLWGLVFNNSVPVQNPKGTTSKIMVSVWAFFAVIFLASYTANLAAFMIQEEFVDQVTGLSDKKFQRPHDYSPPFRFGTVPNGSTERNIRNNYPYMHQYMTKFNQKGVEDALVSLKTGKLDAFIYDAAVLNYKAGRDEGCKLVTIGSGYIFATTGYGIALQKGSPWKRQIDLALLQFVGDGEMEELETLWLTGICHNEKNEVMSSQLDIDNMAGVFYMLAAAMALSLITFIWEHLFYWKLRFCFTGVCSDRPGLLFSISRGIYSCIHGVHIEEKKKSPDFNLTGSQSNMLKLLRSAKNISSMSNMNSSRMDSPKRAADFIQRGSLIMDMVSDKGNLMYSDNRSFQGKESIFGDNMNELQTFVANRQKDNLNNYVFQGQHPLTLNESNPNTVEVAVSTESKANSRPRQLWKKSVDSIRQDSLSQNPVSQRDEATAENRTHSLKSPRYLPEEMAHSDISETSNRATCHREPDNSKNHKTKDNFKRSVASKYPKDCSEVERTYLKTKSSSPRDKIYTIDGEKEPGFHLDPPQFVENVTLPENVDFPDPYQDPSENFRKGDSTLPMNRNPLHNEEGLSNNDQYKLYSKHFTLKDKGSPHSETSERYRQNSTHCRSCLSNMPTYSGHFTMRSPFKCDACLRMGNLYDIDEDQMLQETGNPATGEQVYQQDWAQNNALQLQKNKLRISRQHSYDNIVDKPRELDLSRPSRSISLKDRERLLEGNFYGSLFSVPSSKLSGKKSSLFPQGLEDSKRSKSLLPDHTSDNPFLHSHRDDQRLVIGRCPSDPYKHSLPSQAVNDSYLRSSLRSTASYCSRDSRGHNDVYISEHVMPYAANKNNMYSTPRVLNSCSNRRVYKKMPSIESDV
T1 sequence (Q13224 27-1484, other chains not shown): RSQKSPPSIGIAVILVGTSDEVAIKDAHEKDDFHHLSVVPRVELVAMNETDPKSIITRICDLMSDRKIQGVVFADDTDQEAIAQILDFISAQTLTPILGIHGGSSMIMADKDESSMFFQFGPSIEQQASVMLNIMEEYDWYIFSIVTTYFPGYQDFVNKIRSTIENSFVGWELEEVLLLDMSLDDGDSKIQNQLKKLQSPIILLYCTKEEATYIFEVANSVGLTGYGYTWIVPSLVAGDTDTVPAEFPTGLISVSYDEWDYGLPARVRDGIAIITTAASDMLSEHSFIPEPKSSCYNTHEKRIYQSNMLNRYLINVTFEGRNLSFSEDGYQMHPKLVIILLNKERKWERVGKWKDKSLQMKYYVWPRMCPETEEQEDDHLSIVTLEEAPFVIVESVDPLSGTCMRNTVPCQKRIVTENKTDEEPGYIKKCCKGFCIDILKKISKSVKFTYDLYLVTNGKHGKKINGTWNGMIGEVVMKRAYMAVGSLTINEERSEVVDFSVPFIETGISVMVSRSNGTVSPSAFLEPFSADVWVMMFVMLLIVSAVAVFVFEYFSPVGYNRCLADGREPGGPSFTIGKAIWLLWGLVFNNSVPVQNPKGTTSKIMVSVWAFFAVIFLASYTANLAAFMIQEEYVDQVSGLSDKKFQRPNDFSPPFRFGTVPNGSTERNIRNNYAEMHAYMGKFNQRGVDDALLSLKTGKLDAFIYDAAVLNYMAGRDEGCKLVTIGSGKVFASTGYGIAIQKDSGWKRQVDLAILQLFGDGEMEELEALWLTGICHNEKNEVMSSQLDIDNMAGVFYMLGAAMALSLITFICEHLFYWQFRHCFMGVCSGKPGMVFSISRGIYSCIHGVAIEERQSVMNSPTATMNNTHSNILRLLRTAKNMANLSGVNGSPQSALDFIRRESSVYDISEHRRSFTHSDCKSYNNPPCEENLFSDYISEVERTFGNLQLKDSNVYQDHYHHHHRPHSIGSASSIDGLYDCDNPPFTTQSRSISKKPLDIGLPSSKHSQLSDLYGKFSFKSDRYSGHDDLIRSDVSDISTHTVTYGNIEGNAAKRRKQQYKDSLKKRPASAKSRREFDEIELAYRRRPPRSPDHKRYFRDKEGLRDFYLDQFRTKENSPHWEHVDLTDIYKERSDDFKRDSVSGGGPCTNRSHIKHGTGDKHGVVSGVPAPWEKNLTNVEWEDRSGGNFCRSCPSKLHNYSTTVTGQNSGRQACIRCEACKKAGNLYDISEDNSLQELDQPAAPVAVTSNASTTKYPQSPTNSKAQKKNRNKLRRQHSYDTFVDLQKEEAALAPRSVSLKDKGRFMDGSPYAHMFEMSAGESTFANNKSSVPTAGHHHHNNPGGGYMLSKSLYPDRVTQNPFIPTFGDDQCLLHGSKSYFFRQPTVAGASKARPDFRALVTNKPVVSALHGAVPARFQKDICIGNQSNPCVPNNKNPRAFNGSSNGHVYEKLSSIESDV

SMILES: COc1ccc2c(c1)[C@]13CCCC[C@@H]1[C@H](C2)N(C)CC3 [Dextromethorphan, dextromethorphan hydrobromide monohydrate]
- % affinity ratio [1, 6]: 63%
- α, estimated cooperativity term [1, 7]: 0.13
- Kb [1, 8]: 1.9e-06 M
- L-glutamate CRC HillSlope ([1]; with test item 49 nM): 1.2
- L-glutamate CRC LogEC50 ([1]; with test item 49 nM): −6.7
- L-glutamate CRC HillSlope ([1]; with test item 195 nM): 1.1
- L-glutamate CRC LogEC50 ([1]; with test item 195 nM): −6.7
- L-glutamate CRC HillSlope ([1]; with test item 781 nM): 1.3
- L-glutamate CRC LogEC50 ([1]; with test item 781 nM): −6.6
- L-glutamate CRC HillSlope ([1]; with test item 3.1 μM): 1.3
- L-glutamate CRC LogEC50 ([1]; with test item 3.1 μM): −6.7
- L-glutamate CRC HillSlope ([1]; with test item 12.5 μM): 1.2
- L-glutamate CRC LogEC50 ([1]; with test item 12.5 μM): −6.7
- L-glutamate CRC HillSlope ([1]; with test item 50 μM): 0.83
- L-glutamate CRC LogEC50 ([1]; with test item 50 μM): −6.2
- Kb ([2]; KB Table, absence of extracellular Mg2+, read-out: KB): 6.7 µM
- % affinity ratio [2, 6]: 18%
- α, estimated cooperativity term [2, 7]: 0.34
- L-glutamate CRC HillSlope ([2]; with test item 49 nM): 1.7
- L-glutamate CRC LogEC50 ([2]; with test item 49 nM): −7.5
- L-glutamate CRC HillSlope ([2]; with test item 195 nM): 1.4
- L-glutamate CRC LogEC50 ([2]; with test item 195 nM): −7.5
- L-glutamate CRC HillSlope ([2]; with test item 781 nM): 1.7
- L-glutamate CRC LogEC50 ([2]; with test item 781 nM): −7.4
- L-glutamate CRC HillSlope ([2]; with test item 3.1 μM): 1.9
- L-glutamate CRC LogEC50 ([2]; with test item 3.1 μM): −7.3
- L-glutamate CRC HillSlope ([2]; with test item 12.5 μM): 1.7
- L-glutamate CRC LogEC50 ([2]; with test item 12.5 μM): −7.1
- L-glutamate CRC HillSlope ([2]; with test item 50 μM): 1.9
- L-glutamate CRC LogEC50 ([2]; with test item 50 μM): −6.8
- vacuolization in rats' brains (rat brain): cause vacuolization
- profile on L-glutamate CRC [3]: insurmountable profile
- % affinity ratio [4, 6]: 100%
- α, estimated cooperativity term [4, 7]: 0.24
- Kb [4, 8]: 1.2e-06 M
- L-glutamate CRC HillSlope ([4]; with test item 49 nM): 1.3
- L-glutamate CRC LogEC50 ([4]; with test item 49 nM): −7.0
- L-glutamate CRC HillSlope ([4]; with test item 195 nM): 1.4
- L-glutamate CRC LogEC50 ([4]; with test item 195 nM): −6.8
- L-glutamate CRC HillSlope ([4]; with test item 781 nM): 1.6
- L-glutamate CRC LogEC50 ([4]; with test item 781 nM): −6.8
- L-glutamate CRC HillSlope ([4]; with test item 3.1 μM): 1.6
- L-glutamate CRC LogEC50 ([4]; with test item 3.1 μM): −6.7
- L-glutamate CRC HillSlope ([4]; with test item 12.5 μM): 1.5
- L-glutamate CRC LogEC50 ([4]; with test item 12.5 μM): −6.7
- L-glutamate CRC HillSlope ([4]; with test item 50 μM): 3.0
- L-glutamate CRC LogEC50 ([4]; with test item 50 μM): −6.8
- % affinity ratio [5, 6]: 13%
- α, estimated cooperativity term [5, 7]: 0.25
- Kb [5, 8]: 9.6e-06 M
- L-glutamate CRC HillSlope ([5]; with test item 49 nM): 1.0
- L-glutamate CRC LogEC50 ([5]; with test item 49 nM): −6.6
- L-glutamate CRC HillSlope ([5]; with test item 195 nM): 1.2
- L-glutamate CRC LogEC50 ([5]; with test item 195 nM): −6.6
- L-glutamate CRC HillSlope ([5]; with test item 781 nM): 1.3
- L-glutamate CRC LogEC50 ([5]; with test item 781 nM): −6.4
- L-glutamate CRC HillSlope ([5]; with test item 3.1 μM): 1.3
- L-glutamate CRC LogEC50 ([5]; with test item 3.1 μM): −6.5
- L-glutamate CRC HillSlope ([5]; with test item 12.5 μM): 1.1
- L-glutamate CRC LogEC50 ([5]; with test item 12.5 μM): −6.4
- L-glutamate CRC HillSlope ([5]; with test item 50 μM): 1.3
- L-glutamate CRC LogEC50 ([5]; with test item 50 μM): −6.2

— patent US20230017786A1, “DEXTR[…] A DISEASE-MODIFYING TREATMENT FOR NEUROPSYCHIATRIC DISORDERS AND DISEASES” (priority 2020, published 2023)
